Test results from publication PMC7156458, “Synthetic biology based construction of biological activity-related library of fungal decalin-containing diterpenoid pyrones” (Nature Communications, 2020).

Molecular target: Aβ42 (Homo sapiens, UniProt P05067)
Assay: Th-T (thioflavin-T) assay of Aβ42 aggregation
Type: biochemical
Settings: for Th-T assay plate reading, mean of three wells (Supplementary Fig. 47): source data, Ab alone and No Ab as controls

Chain of Aβ42 (P05067 672-713): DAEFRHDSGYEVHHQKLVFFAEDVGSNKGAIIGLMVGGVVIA

- Th-T fluorescence, mean of three wells (Aβ42 aggregation time course, reading M117): 3.027
- Th-T fluorescence, mean of three wells (Aβ42 aggregation time course, reading M118): 3.005
- Th-T fluorescence, mean of three wells (Aβ42 aggregation time course, reading M119): 3.036
- Th-T fluorescence, mean of three wells (Aβ42 aggregation time course, reading M120): 3.024
- Th-T fluorescence, mean of three wells (Aβ42 aggregation time course, reading M121): 3.009
- Th-T fluorescence, mean of three wells (Aβ42 aggregation time course, reading M122): 2.9814
- Th-T fluorescence, mean of three wells (Aβ42 aggregation time course, reading M123): 3.007
- Th-T fluorescence, mean of three wells (Aβ42 aggregation time course, reading M124): 3.01
- Th-T fluorescence, mean of three wells (Aβ42 aggregation time course, reading M125): 2.994
- Th-T fluorescence, mean of three wells (Aβ42 aggregation time course, reading M126): 2.985
- Th-T fluorescence, mean of three wells (Aβ42 aggregation time course, reading M127): 3.018
- Th-T fluorescence, mean of three wells (Aβ42 aggregation time course, reading M128): 2.986
- Th-T fluorescence, mean of three wells (Aβ42 aggregation time course, reading M129): 2.997
- Th-T fluorescence, mean of three wells (Aβ42 aggregation time course, reading M130): 3.004
- Th-T fluorescence, mean of three wells (Aβ42 aggregation time course, reading M131): 2.988
- Th-T fluorescence, mean of three wells (Aβ42 aggregation time course, reading M132): 2.974
- Th-T fluorescence, mean of three wells (Aβ42 aggregation time course, reading M133): 2.995
- Th-T fluorescence, mean of three wells (Aβ42 aggregation time course, reading M134): 2.998
- Th-T fluorescence, mean of three wells (Aβ42 aggregation time course, reading M135): 3.001
- Th-T fluorescence, mean of three wells (Aβ42 aggregation time course, reading M136): 2.985
- Th-T fluorescence, mean of three wells (Supplementary Fig. 47, reading M137): 2.995
- Th-T fluorescence, mean of three wells (Supplementary Fig. 47, reading M138): 2.975
- Th-T fluorescence, mean of three wells (Supplementary Fig. 47, reading M139): 2.9735
- Th-T fluorescence, mean of three wells (Supplementary Fig. 47, reading M140): 2.981
- Th-T fluorescence, mean of three wells (Supplementary Fig. 47, reading M141): 2.969
- Th-T fluorescence, mean of three wells (Supplementary Fig. 47, reading M142): 2.937
- Th-T fluorescence, mean of three wells (Supplementary Fig. 47, reading M143): 3.01
- Th-T fluorescence, mean of three wells (Supplementary Fig. 47, reading M144): 2.949
- Th-T fluorescence, mean of three wells (Supplementary Fig. 47, reading M145): 2.953
- Th-T fluorescence, mean of three wells (Supplementary Fig. 47 source data, measurement M37 of time course): 3.026
- Th-T fluorescence, mean of three wells (Supplementary Fig. 47 source data, measurement M38 of time course): 3.058
- Th-T fluorescence, mean of three wells (Supplementary Fig. 47 source data, measurement M39 of time course): 3.066
- Th-T fluorescence, mean of three wells (Supplementary Fig. 47 source data, measurement M40 of time course): 3.0688
- Th-T fluorescence, mean of three wells (Supplementary Fig. 47 source data, measurement M41 of time course): 3.079
- Th-T fluorescence, mean of three wells (Supplementary Fig. 47 source data, measurement M42 of time course): 3.094
- Th-T fluorescence, mean of three wells (Supplementary Fig. 47 source data, measurement M43 of time course): 3.089
- Th-T fluorescence, mean of three wells (Supplementary Fig. 47 source data, measurement M44 of time course): 3.087
- Th-T fluorescence, mean of three wells (Supplementary Fig. 47 source data, measurement M45 of time course): 3.107
- Th-T fluorescence, mean of three wells (Supplementary Fig. 47 source data, measurement M46 of time course): 3.104
- Th-T fluorescence, mean of three wells (Supplementary Fig. 47 source data, measurement M47 of time course): 3.097
- Th-T fluorescence, mean of three wells (Supplementary Fig. 47 source data, measurement M48 of time course): 3.099
- Th-T fluorescence, mean of three wells (Supplementary Fig. 47 source data, measurement M49 of time course): 3.124
- Th-T fluorescence, mean of three wells (Supplementary Fig. 47 source data, measurement M50 of time course): 3.143
- Th-T fluorescence, mean of three wells (Supplementary Fig. 47 source data, measurement M51 of time course): 3.109
- Th-T fluorescence, mean of three wells (Supplementary Fig. 47 source data, measurement M52 of time course): 3.12
- Th-T fluorescence, mean of three wells (Supplementary Fig. 47 source data, measurement M53 of time course): 3.131
- Th-T fluorescence, mean of three wells (Supplementary Fig. 47 source data, measurement M54 of time course): 3.122
- Th-T fluorescence, mean of three wells (Supplementary Fig. 47 source data, measurement M55 of time course): 3.1161
- Th-T fluorescence, mean of three wells (Supplementary Fig. 47 source data, measurement M56 of time course): 3.112
- Th-T assay plate reading, mean of three wells (Supplementary Fig. 47) (measurement M1): 0.2982
- Th-T assay plate reading, mean of three wells (Supplementary Fig. 47) (measurement M2): 0.2966
- Th-T assay plate reading, mean of three wells (Supplementary Fig. 47) (measurement M3): 0.3112
- Th-T assay plate reading, mean of three wells (Supplementary Fig. 47) (measurement M4): 0.3288
- Th-T assay plate reading, mean of three wells (Supplementary Fig. 47) (measurement M5): 0.3791
- Th-T assay plate reading, mean of three wells (Supplementary Fig. 47) (measurement M6): 0.4184
- Th-T assay plate reading, mean of three wells (Supplementary Fig. 47) (measurement M7): 0.4946
- Th-T assay plate reading, mean of three wells (Supplementary Fig. 47) (measurement M8): 0.5732
- Th-T assay plate reading, mean of three wells (Supplementary Fig. 47) (measurement M9): 0.6554
- Th-T assay plate reading, mean of three wells (Supplementary Fig. 47) (measurement M10): 0.6998
- Th-T assay plate reading, mean of three wells (Supplementary Fig. 47) (measurement M11): 0.7388
- Th-T assay plate reading, mean of three wells (Supplementary Fig. 47) (measurement M12): 0.7839
- Th-T assay plate reading, mean of three wells (Supplementary Fig. 47) (measurement M13): 0.8524
- Th-T assay plate reading, mean of three wells (Supplementary Fig. 47) (measurement M14): 1.025
- Th-T assay plate reading, mean of three wells (Supplementary Fig. 47) (measurement M15): 1.367
- Th-T assay plate reading, mean of three wells (Supplementary Fig. 47) (measurement M16): 1.777
- Th-T fluorescence, mean of three wells (reading M17, Supplementary Fig. 47 source data): 2.114
- Th-T fluorescence, mean of three wells (reading M18, Supplementary Fig. 47 source data): 2.387
- Th-T fluorescence, mean of three wells (reading M19, Supplementary Fig. 47 source data): 2.598
- Th-T fluorescence, mean of three wells (reading M20, Supplementary Fig. 47 source data): 2.677
- Th-T fluorescence, mean of three wells (reading M21, Supplementary Fig. 47 source data): 2.685
- Th-T fluorescence, mean of three wells (reading M22, Supplementary Fig. 47 source data): 2.669
- Th-T fluorescence, mean of three wells (reading M23, Supplementary Fig. 47 source data): 2.723
- Th-T fluorescence, mean of three wells (reading M24, Supplementary Fig. 47 source data): 2.7479
- Th-T fluorescence, mean of three wells (reading M25, Supplementary Fig. 47 source data): 2.777
- Th-T fluorescence, mean of three wells (reading M26, Supplementary Fig. 47 source data): 2.823
- Th-T fluorescence, mean of three wells (reading M27, Supplementary Fig. 47 source data): 2.858
- Th-T fluorescence, mean of three wells (reading M28, Supplementary Fig. 47 source data): 2.868
- Th-T fluorescence, mean of three wells (reading M29, Supplementary Fig. 47 source data): 2.914
- Th-T fluorescence, mean of three wells (reading M30, Supplementary Fig. 47 source data): 2.924
- Th-T fluorescence, mean of three wells (reading M31, Supplementary Fig. 47 source data): 2.961
- Th-T fluorescence, mean of three wells (reading M32, Supplementary Fig. 47 source data): 2.958
- Th-T fluorescence, mean of three wells (reading M33, Supplementary Fig. 47 source data): 2.966
- Th-T fluorescence, mean of three wells (reading M34, Supplementary Fig. 47 source data): 3.0036
- Th-T fluorescence, mean of three wells (reading M35, Supplementary Fig. 47 source data): 3.001
- Th-T fluorescence, mean of three wells (reading M36, Supplementary Fig. 47 source data): 3.031
- Th-T fluorescence, mean of three wells (time course, reading M57): 3.145
- Th-T fluorescence, mean of three wells (time course, reading M58): 3.098
- Th-T fluorescence, mean of three wells (time course, reading M59): 3.0965
- Th-T fluorescence, mean of three wells (time course, reading M60): 3.12
- Th-T fluorescence, mean of three wells (time course, reading M61): 3.114
- Th-T fluorescence, mean of three wells (time course, reading M62): 3.124
- Th-T fluorescence, mean of three wells (time course, reading M63): 3.121
- Th-T fluorescence, mean of three wells (time course, reading M64): 3.089
- Th-T fluorescence, mean of three wells (time course, reading M65): 3.1417
- Th-T fluorescence, mean of three wells (time course, reading M66): 3.124
- Th-T fluorescence, mean of three wells (time course, reading M67): 3.125
- Th-T fluorescence, mean of three wells (time-course reading M97, Supplementary Fig. 47 source data): 3.037
- Th-T fluorescence, mean of three wells (time-course reading M98, Supplementary Fig. 47 source data): 3.037
- Th-T fluorescence, mean of three wells (time-course reading M99, Supplementary Fig. 47 source data): 3.05
- Th-T fluorescence, mean of three wells (time-course reading M100, Supplementary Fig. 47 source data): 3.074
- Th-T fluorescence, mean of three wells (time-course reading M101, Supplementary Fig. 47 source data): 3.025
- Th-T fluorescence, mean of three wells (time-course reading M102, Supplementary Fig. 47 source data): 3.036
- Th-T fluorescence, mean of three wells (time-course reading M103, Supplementary Fig. 47 source data): 3.034
- Th-T fluorescence, mean of three wells (time-course reading M104, Supplementary Fig. 47 source data): 3.0181
- Th-T fluorescence, mean of three wells (time-course reading M105, Supplementary Fig. 47 source data): 3.041
- Th-T fluorescence, mean of three wells (time-course reading M106, Supplementary Fig. 47 source data): 3.028
- Th-T fluorescence, mean of three wells (time-course reading M107, Supplementary Fig. 47 source data): 3.025
- Th-T fluorescence, mean of three wells (time-course reading M108, Supplementary Fig. 47 source data): 3.028
- Th-T fluorescence, mean of three wells (time-course reading M109, Supplementary Fig. 47 source data): 3.032
- Th-T fluorescence, mean of three wells (time-course reading M110, Supplementary Fig. 47 source data): 3.022
- Th-T fluorescence, mean of three wells (time-course reading M111, Supplementary Fig. 47 source data): 3.062
- Th-T fluorescence, mean of three wells (time-course reading M112, Supplementary Fig. 47 source data): 3.021
- Th-T fluorescence, mean of three wells (time-course reading M113, Supplementary Fig. 47 source data): 3.021
- Th-T fluorescence, mean of three wells (time-course reading M114, Supplementary Fig. 47 source data): 3.0544
- Th-T fluorescence, mean of three wells (time-course reading M115, Supplementary Fig. 47 source data): 3.028
- Th-T fluorescence, mean of three wells (time-course reading M116, Supplementary Fig. 47 source data): 3.017
SMILES: C=C1CC[C@@H]2[C@](C)(CC[C@H]3O[C@H](C=C(C)C)C[C@@]23C)[C@@H]1Cc1c(O)c(C)c(C)oc1=O [Compound 10, higginsianin A]
